Values after ≈ are worked out from the molar mass of the structure shown.

For the series the following is noted: buffer; pH 7.4; 200.0 µM.
One may read the kinetic solubility as solubility judged after dilution from a stock solution rather than from solid. `O=C(O)CNC(=O)C(c1ccccc1)c1ccccc1`: the kinetic solubility is greater than 40.4 µg/mL.
For the compound `COc1ccccc1CNC(=O)COC(=O)c1ccc(Cl)nc1`, the kinetic solubility was greater than 50.2 µg/mL.
In the case of `COc1ccc(CC(=O)Nc2cccc3ccccc23)cc1OC` it was 7.1 µg/mL (≈ 22.1 µM); in that of `O=C(Nc1nccs1)C(Cl)(Cl)Cl`, greater than 36.8 µg/mL; in that of `CC(=O)Nc1nnc(S(N)(=O)=O)s1`, greater than 33.3 µg/mL.
In the case of `O=C(O)CSc1ncccn1` it was greater than 25.5 µg/mL; in that of `C=CCNc1nc(N)c([N+](=O)[O-])c(NCc2ccccc2)n1`, 0.7 µg/mL (≈ 2.33 µM); in that of `CC(C)(C)n1cnc2cc(NC(=O)c3ccco3)ccc21`, 41.1 µg/mL (≈ 145 µM).
For `CC(Sc1nncs1)C(=O)Nc1ccc2c(c1)OCCO2` (stereo unspecified) the value was greater than 48.5 µg/mL; for `CCOc1ccc(-c2c(=O)n(O)c3ccccc3[n+]2[O-])cc1`, greater than 44.7 µg/mL.
Compound `CC1CCCC(NC(=O)COC(=O)[C@@H](NC(=O)c2ccccc2Cl)C(C)C)C1C` (stereo partly specified) returned a solubility (kinetic) of 46.1 µg/mL (≈ 109 µM).
For `Cc1nc(NC(=O)CSc2nncs2)c(Cl)cc1Cl` the value was greater than 50.3 µg/mL; for `CC1CC(C)CN(C(=O)C2CC(=O)N(c3ccc(F)cc3)C2)C1` (stereo unspecified), 34.7 µg/mL (≈ 109 µM); for `Cc1csc(NC(=O)C2=COCCO2)n1`, greater than 33.9 µg/mL.
Regarding `COc1ccc(CNc2ncccn2)cc1OC`, the solubility (kinetic) was greater than 36.8 µg/mL.
For `CC(C)CCN(C(=O)c1ccccn1)c1c(N)n(Cc2ccccc2)c(=O)[nH]c1=O` the value was 56.9 µg/mL (≈ 140 µM).
For `COC(=O)c1ccc(S(=O)(=O)NCc2ccc(OC)cc2)n1C` the value was greater than 50.8 µg/mL; for `Cc1cc(NC(=O)COc2ccc(C(C)(C)C)cc2)no1`, 2 µg/mL (≈ 6.94 µM); for `CCc1ccc(Nc2c([N+](=O)[O-])c(=O)oc3ccccc23)cc1`, 1.4 µg/mL (≈ 4.51 µM).
For `Nc1nc(C23CC4CC(CC(C4)C2)C3)[nH]c(=O)n1` the value was greater than 36.9 µg/mL.
On to `Cc1ccc2cccc(OCC(=O)NCCC3=CCCCC3)c2n1`, for which the solubility (kinetic) is 46.5 µg/mL (≈ 143 µM).
For `CC(=O)Oc1ccc(-c2csc(Nc3cccc(C)n3)n2)cc1` the value was less than 0.2 µg/mL; for `CCCc1cc(=O)[nH]c(SCC(=O)NCc2ccc3c(c2)OCO3)n1`, greater than 54.2 µg/mL; for `N#Cc1ccc(C(=O)NC(=S)N2CCN(C=O)CC2)cc1`, 39 µg/mL (≈ 129 µM).
For `O=C(COc1ccccc1Br)NC1CC1` the value was greater than 40.5 µg/mL; for `O=C(NC1CCCCC1)c1ccc(-c2ccccc2[N+](=O)[O-])o1`, 2.9 µg/mL (≈ 9.23 µM); for `CC(C)(C)c1ccc(/C=C2\SC(=O)N=C2N)cc1`, less than 0.3 µg/mL.
`O=C(CN1C(=O)c2cccc([N+](=O)[O-])c2C1=O)NNC(=O)c1ccc(F)cc1` returned a kinetic solubility greater than 57.9 µg/mL.
For `N#Cc1ccc(NC(=O)CN2C(=O)NC3(CCCC3)C2=O)cc1Cl` the value was 46.1 µg/mL (≈ 133 µM); for `Cc1ncc(/C=C2\C(=O)Nc3ccccc32)[nH]1`, 12.1 µg/mL (≈ 53.7 µM).
In the case of `Fc1ccc(CNc2nc(-c3cccnc3)nc3ccccc23)cc1` it was 5.6 µg/mL (≈ 17 µM).
In the case of `CC(=O)Nc1ccccc1OCC(=O)NC1CCCCC1C` (stereo unspecified), the kinetic solubility was greater than 45.7 µg/mL.
In the case of `CC(C)N(Cc1nc(-c2ccc3c(c2)OCO3)no1)CC1CCC(=O)N1` (stereo unspecified) it was 37.3 µg/mL (≈ 104 µM); in that of `COc1ccccc1NC(=O)NC1(C)CCS(=O)(=O)C1` (stereo unspecified), greater than 44.8 µg/mL.
In the case of `Nc1ccc2nc(COc3ccccc3)[nH]c2c1` it was 12.4 µg/mL (≈ 51.8 µM); in that of `O=S(=O)(c1ccccc1)N1CCN(Cc2c(O)ccc3ccccc23)CC1`, 6.6 µg/mL (≈ 17.3 µM).
With `Cc1ccc(Cn2cc(C=O)c3ccccc32)cc1`, the solubility (kinetic) is 11.7 µg/mL (≈ 46.9 µM). This solubility kinetic is about 1.8-fold higher than that of the compound before.
In the case of `CC1CCCC(NC(=O)c2cccs2)C1C` (stereo unspecified) it was 23 µg/mL (≈ 96.9 µM); in that of `CN1CCCN(C(=O)COc2ccc(F)cc2Cl)CC1`, greater than 45.1 µg/mL; in that of `COc1ccc(C(=O)NC2CC3CCCC(C2)N3CC(C)C)cc1` (stereo unspecified), greater than 49.6 µg/mL.
In the case of `O=C(N1CCOCC1)N1CCN(S(=O)(=O)c2ccc(Cl)cc2)C1` it was 44.5 µg/mL (≈ 124 µM).

For the origin of these results see PubChem BioAssay AID1996.
